Source: PubChem BioAssay AID248 (DTP/NCI, 2004)
Several values for one entry are separate records, joined by “and”; a condition that tells them apart may be missing. Identical values can stand only once. Inconclusive results and toxic doses are left out. No stated cut-off is given here; in the data, active means T/C of 150% or more; inactive means T/C below 125%.

Tested on: L1210 leukemia ip in BDF1 mice, survival T/C
Test: NCI In Vivo Anticancer Drug Screen. Data for tumor model L1210 Leukemia (intraperitoneal) in B6D2F1 (BDF1) mice
Details: endpoint: mean survival time, higher = longer survival
Method in brief: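 Transplanted-tumor mice were given test agent; controls received vehicle only. Survival readings from the two groups were divided (treated over control).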

[1] = dose: 100.0 mg/kg/injection, schedule: Q01DX009 (ip), vehicle: Klucel (hydroxypropylcellulose) (HPC)
[2] = dose: 100.0 mg/kg/injection, schedule: Q04DX003 (ip), vehicle: Klucel (hydroxypropylcellulose) (HPC)
[3] = dose: 200.0 mg/kg/injection, schedule: Q01DX009 (ip), vehicle: Klucel (hydroxypropylcellulose) (HPC)
[4] = dose: 200.0 mg/kg/injection, schedule: Q04DX003 (ip), vehicle: Klucel (hydroxypropylcellulose) (HPC)
[5] = dose: 400.0 mg/kg/injection, schedule: Q01DX009 (ip), vehicle: Klucel (hydroxypropylcellulose) (HPC)
[6] = dose: 400.0 mg/kg/injection, schedule: Q04DX003 (ip), vehicle: Klucel (hydroxypropylcellulose) (HPC)
[7] = dose: 100.0 mg/kg/injection, schedule: Q01DX001 (ip), vehicle: saline
[8] = dose: 100.0 mg/kg/injection, schedule: Q04DX003 (ip), vehicle: saline
[9] = dose: 200.0 mg/kg/injection, schedule: Q01DX001 (ip), vehicle: saline
[10] = dose: 200.0 mg/kg/injection, schedule: Q04DX003 (ip), vehicle: saline
[11] = dose: 400.0 mg/kg/injection, schedule: Q01DX001 (ip), vehicle: saline
[12] = dose: 50.0 mg/kg/injection, schedule: Q01DX001 (ip), vehicle: saline
[13] = dose: 100.0 mg/kg/injection, schedule: Q01DX009 (ip), vehicle: saline
[14] = dose: 200.0 mg/kg/injection, schedule: Q01DX009 (ip), vehicle: saline
[15] = dose: 400.0 mg/kg/injection, schedule: Q04DX003 (ip), vehicle: saline

Measured: T/C

O=C1C(Br)C(Br)C(=O)N1c1ccccc1F (stereo unspecified)
inactive: dose: 12.5 mg/kg/injection, schedule: Q01DX009 (ip), vehicle: other 96 % of control | dose: 25.0 mg/kg/injection, schedule: Q01DX009 (ip), vehicle: other 92 % of control

CCCCNC(=O)NC1CC(OC2CC(O)(C(C)=O)Cc3c(O)c4c(c(O)c32)C(=O)c2c(OC)cccc2C4=O)OC(C)C1O (stereo unspecified)
inactive: dose: 1.0 mg/kg/injection, schedule: Q04DX003 (ip), vehicle: water 104 % of control | dose: 2.0 mg/kg/injection, schedule: Q04DX003 (ip), vehicle: water 97 % of control | dose: 4.0 mg/kg/injection, schedule: Q04DX003 (ip), vehicle: water 98 % of control | dose: 8.0 mg/kg/injection, schedule: Q04DX003 (ip), vehicle: water 98 % of control | dose: 16.0 mg/kg/injection, schedule: Q04DX003 (ip), vehicle: water 94 % of control | dose: 32.0 mg/kg/injection, schedule: Q04DX003 (ip), vehicle: water 101 % of control

O=C(Nc1ccccc1Cl)Oc1ccc(-c2ccccc2)cc1Br
inactive: [1] 102 % of control | [2] 94 % of control | [3] 96 % of control | [4] 96 % of control | [5] 104 % of control | [6] 102 % of control

COc1ccc2c(c1)C13CCN(C)C(C2)C1CCC1(C3)OCCO1 (stereo unspecified)
inactive: dose: 12.5 mg/kg/injection, schedule: Q01DX009 (ip), vehicle: saline 103 % of control | dose: 25.0 mg/kg/injection, schedule: Q01DX009 (ip), vehicle: saline 94 % of control | dose: 50.0 mg/kg/injection, schedule: Q01DX009 (ip), vehicle: saline 97 % of control | [7] 109 % of control | [1] 106 % of control | [8] 105 % of control | [9] 101 % of control | [10] 86 % of control | [11] 95 % of control

CCOc1ccc2c(O)csc2c1
inactive: dose: 100.0 mg/kg/injection, schedule: Q01DX009 (ip), vehicle: saline with Tween-80 93 % of control | dose: 200.0 mg/kg/injection, schedule: Q01DX009 (ip), vehicle: saline with Tween-80 95 % of control | dose: 400.0 mg/kg/injection, schedule: Q01DX009 (ip), vehicle: saline with Tween-80 97 % of control

COC(=O)C(=O)CC(=O)c1cccc([N+](=O)[O-])c1
inactive: dose: 100.0 mg/kg/injection, schedule: Q04DX002 (ip), vehicle: Klucel (hydroxypropylcellulose) (HPC) 103 % of control | dose: 200.0 mg/kg/injection, schedule: Q04DX002 (ip), vehicle: Klucel (hydroxypropylcellulose) (HPC) 95 % of control | dose: 400.0 mg/kg/injection, schedule: Q04DX002 (ip), vehicle: Klucel (hydroxypropylcellulose) (HPC) 95 % of control

CCOC(=O)CCc1[nH]c2nnc(C)cc2c1[N+](=O)[O-]
inactive: dose: 56.3 mg/kg/injection, schedule: Q04DX002 (ip), vehicle: Klucel (hydroxypropylcellulose) (HPC) 100 % of control | dose: 112.5 mg/kg/injection, schedule: Q04DX002 (ip), vehicle: Klucel (hydroxypropylcellulose) (HPC) 106 % of control | dose: 225.0 mg/kg/injection, schedule: Q04DX002 (ip), vehicle: Klucel (hydroxypropylcellulose) (HPC) 91 % of control

OCC(O)C(O)C(O)C(c1ccccc1)c1ccccc1 (stereo unspecified)
inactive: [12] 107 % of control | [7] 98 % of control | [9] 96 % of control | [11] 98 % of control

CC(C)(C)c1ccc(OC(=S)Nc2ccccc2)cc1
inactive: dose: 100.0 mg/kg/injection, schedule: Q04DX003 (ip), vehicle: saline with Tween-80 111 % of control | dose: 200.0 mg/kg/injection, schedule: Q04DX003 (ip), vehicle: saline with Tween-80 111 % of control | dose: 400.0 mg/kg/injection, schedule: Q04DX003 (ip), vehicle: saline with Tween-80 103 % of control

NC(CCc1c[nH]c(=O)[nH]c1=O)C(=O)O (stereo unspecified)
inactive: [12] 104 % of control | [7] 100 % of control | [9] 98 % of control | [11] 110 % of control

NC(=O)C1(c2ccccc2)CC1
inactive: [13] 100 % of control | [8] 88 % of control | [14] 103 % of control | [10] 93 % of control | [15] 107 % of control

c1ccc2c(c1)OCCOCCOc1ccccc1OCCOCCO2
inactive: [13] 98 % of control and 89 % of control | [8] 94 % of control and 92 % of control | [14] 101 % of control and 92 % of control | [10] 93 % of control and 92 % of control | dose: 400.0 mg/kg/injection, schedule: Q01DX009 (ip), vehicle: saline 94 % of control and 91 % of control | [15] 89 % of control and 90 % of control

CC(=O)OC1CCC2(C)C(=CC=C3C2CCC2(C)C3CCC2C(C)CCCC(C)C)C1 (stereo unspecified)
inactive: dose: 100.0 mg/kg/injection, schedule: Q01DX001 (ip), vehicle: Klucel (hydroxypropylcellulose) (HPC) 97 % of control | dose: 200.0 mg/kg/injection, schedule: Q01DX001 (ip), vehicle: Klucel (hydroxypropylcellulose) (HPC) 87 % of control | dose: 400.0 mg/kg/injection, schedule: Q01DX001 (ip), vehicle: Klucel (hydroxypropylcellulose) (HPC) 87 % of control

CC(C)=CCN(CC=C(C)C)CCC(C)(C(N)=O)c1cccc2ccccc12 (stereo unspecified)
inactive: dose: 6.25 mg/kg/injection, schedule: Q01DX009 (ip), vehicle: Klucel (hydroxypropylcellulose) (HPC) 101 % of control | dose: 6.25 mg/kg/injection, schedule: Q04DX003 (ip), vehicle: Klucel (hydroxypropylcellulose) (HPC) 104 % of control | dose: 12.5 mg/kg/injection, schedule: Q01DX009 (ip), vehicle: Klucel (hydroxypropylcellulose) (HPC) 98 % of control | dose: 12.5 mg/kg/injection, schedule: Q04DX003 (ip), vehicle: Klucel (hydroxypropylcellulose) (HPC) 100 % of control | dose: 25.0 mg/kg/injection, schedule: Q01DX009 (ip), vehicle: Klucel (hydroxypropylcellulose) (HPC) 101 % of control | dose: 25.0 mg/kg/injection, schedule: Q04DX003 (ip), vehicle: Klucel (hydroxypropylcellulose) (HPC) 105 % of control

N#CC(Cc1ccccc1Cl)(Cc1ccccc1Cl)c1ccccc1
inactive: [1] 110 % of control | [2] 108 % of control | [3] 105 % of control | [4] 94 % of control | [5] 105 % of control | [6] 108 % of control

Cc1ccccc1C(c1ccccc1)N(C)C (stereo unspecified)
inactive: [12] 100 % of control | [7] 96 % of control | [9] 96 % of control | [11] 92 % of control

COC(=O)c1c([N+](=O)[O-])ncn1C1OC(COC(C)=O)C(OC(C)=O)C1OC(C)=O (stereo unspecified)
inactive: [7] 102 % of control | [9] 103 % of control | [11] 94 % of control
